Measured values taken from patent US8883504B2, “Cell differentiation suppressing agent, method of culturing cells using the same, culture solution, and cultured cell line” (Asahi Kasei Kabushiki Kaisha, priority 2003, dated 2014).

System: Nanog gene
Assay: Nanog gene expression level by real time PCR (ES cell differentiation inhibition assay 3)
Format: cell-based, mouse
Settings: D3ES cells, 4 μg/mL, 1 day, GAPDH internal standard, FIG. 7
Method: For the D3ES cells prepared by the method described in (3) preparation of a mouse ES cell of Example 1, 7.85×10^5 cells were seeded in a 10 cm-diameter cell culture dish coated previously with a 0.1% aqueous gelatin solution to make 10 mL of the ES cell assay medium. The differentiation inhibiting agent B of the present invention in the final concentration of 4 μg/mL or ESGRO in the final concentration of 1×10^3 unit/mL was added to each dish, and culturing was carried out at 37° C. in 5% CO2 incubator for 1 day.
The total RNA was extracted from the ES cell cultured by the method shown in (3) ES cell differentiation inhibition assay 3 as described above by using ISOGEN (K.K. Nippon Gene Corp. Japan made) by the attached method. In this method, the cell was collected in a 15 mL sterilized tube, centrifuged at 1,000 rpm for about 5 minutes by using the table centrifuge (TOMY SEIKO made) to make pellets. The supernatant was removed, the pellets were washed twice with 10 mL of PBS, and then, transferred to a 1.5 mL Eppendorf tube. The pellets were dissolved in 1 ml ISOGENE and left stand at room temperature for 5 minutes and, then, added with 0.2 mL of chloroform (Wako Pure Chemicals), shaken for 15 seconds, and left stand at room temperature for 2 or 3 minutes. Centrifugation was carried out at 4° C. at 10,000 rpm for 15 minutes by using the micro centrifuge (TOMY SEIKO made), 400 μL of the supernatant was transferred to a fresh 1.5 mL Eppendorf tube. 500 μL of isopropanol (Wako Pure Chemicals) was added and the mixture was left stand at room temperature for 10 minutes and, then, was centrifuged at 4° C. at 10,000 rpm for 10 minutes by using the micro centrifuge. The supernatant was removed and, then, 1 mL of a 70% ethanol aqueous solution was added. The mixture was shaken and then was centrifuged at 4° C. at 10,000 rpm for about 5 minutes by using the micro centrifuge. The supernatant was removed and the precipitation was dried and, then, dissolved in 30 μL of distilled water to obtain the total RNA solution.
The cDNA was synthesized by using 2 μg of the total RNA obtained by such the way as the template, using DeoxyribonucleaseI (Amplification Grade) (Invitrogen Corp. made) and SuperScript III First-Strand Synthesis System for RT-PCR (Invitrogen Corp. made, 18080-051) by the attached protocol. In this step, 1 μL of 10× DNaseI Reaction Buffer, 1 μL of 10× DNaseI (all these were of Invitrogen Corp. made) were added to 2 μg of the total RNA to give the total volume of 10 μL by adding distilled water to prepare the reaction solution, and then incubation was carried out at room temperature for 10 minutes. 1 μL of 25 mM EDTA solution was added, and the mixture was heated at 65° C. for 10 minutes and then, cooled to room temperature. 8 μL of the reaction solution was taken out, and 1 μL of […] Oligo(dT) 20 primer and 1 μL of 10 mM dNTP Mix were added, and incubation was carried out at 65° C. for 5 minutes. The reaction solution was placed on ice for 1 minute, and then 2 μL of 10× RT Buffer, 4 μL of 25 mM MgCl2, 2 μL of 0.1 M DTT, 1 μL of RNaseOUT (Invitrogen Corp. made) and 1 μL of SuperScript III RT were added for incubation at 50° C. for 50 minutes. Subsequently, incubation was carried out at 85° C. for 5 minutes, and then the mixture was left stand on ice for 1 min. […] The expression level of the Nanog gene and the glyceraldehyde-3-phosphate dehydrogenase (GAPDH) gene as the internal standard were measured. […]

Row | Compound | expression level of Nanog gene in comparison with medium without agent and medium containing 1,000 units/mL of ESGRO
1 | COc1ccc(N=NC(C(N)=O)=C2NC(C)(C)Cc3ccccc32)cc1 [F, 2-(3,3-dimethyl-3,4-dihydro-2H-isoquinoline-1-ylidene)-2-(4-methoxy-phenylazo)-acetamide] | increased similarly to the differentiation inhibiting agents B
2 | CC1(C)Cc2ccccc2C(=C(N=Nc2cccc(Cl)c2)C(N)=O)N1 [C, 2-(3-chloro-phenylazo)-2-(3,3-dimethyl-3,4-dihydro-2H-isoquinoline-1-ylidene)-acetamide] | increased similarly to the differentiation inhibiting agents B
3 | CC1(C)Cc2ccccc2C(=C(N=Nc2cccc([N+](=O)[O-])c2)C(N)=O)N1 [E, 2-(3,3-dimethyl-3,4-dihydro-2H-isoquinoline-1-ylidene)-2-(3-nitro-phenylazo)-acetamide] | increased similarly to the differentiation inhibiting agents B
4 | CC(=O)c1ccc(/N=N/C(C(N)=O)=C2/NC(C)(C)Cc3ccccc32)cc1 [compound B, 2-(4-acetyl-phenylazo)-2-(3,3-dimethyl-3,4-dihydro-2H-isoquinoline-1-ylidene)-acetamide] | increased significantly
